Where two headings read alike, the source gives them in different places.

Data on 21 compounds can be found in patent publication US6001331A, “Method of imaging amyloid deposits” (Warner-Lambert Company, priority 1998, dated 1999).

Test [1] deals with T1, βA(1-40) amyloid aggregates (Homo sapiens, UniProt P05067).
T1 construct: lyophilized β(1-40) protein powder (which may be purchased from BACHEM); purchased BACHEM
The experiment in a line: Competition assay with Thioflavin T (ThT) for binding to β(1-40) amyloid aggregates, fluorescence 96-well plate. An excerpt:
Amyloid aggregates containing β(1-40) protein can also be made by methods well known to those skilled in the art. See, for example, Burdick D., Soreghan B., Kwon M., Kosmoski J., Knauer M., Henschen A., Yates J., Cotman C., and Glabe C. Assembly and aggregation properties of synthetic Alzheimer's A4/β amyloid peptide analogs. J. Biol. Chem., 267:546-554 (1992), which is hereby incorporated by reference. Briefly, lyophilized β(1-40) protein powder (which may be purchased from BACHEM) was dissolved at 10 mg/mL in hexafluoro-2-propanol and subsequently diluted to 500 μg/mL in 25 mM sodium phosphate buffer, pH 6 to induce the α-helix to β-sheet transition resulting in aggregate formation.
(§1) The ability of compounds of Formula I to compete with Thioflavin T (ThT) for binding to amyloid aggregates was measured using fluorescence in a 96-well fluorescence plate assay. As a compromise between sensitivity and signal and to facilitate comparisons between different amyloid fibrils, ThT is present at a concentration equal to the Kmapp of the particular amyloid fibril type and fibril concentrations yielding a similar fluorescence intensity are used. Insulin: 0.5 μM ThT, 2 μg per well. β(1-40): 20 μM ThT, 5 μg/well. All solutions are in 25 mM sodium phosphate buffer, pH 6.0, and the assay is performed at room temperature.
Using a multichannel pipettor, 100 μL of dilutions of the compound to be tested (0.001-30 μM final concentration in 3-fold steps) are placed in the bottom of Corning U-well polystyrene plates (Corning Company, Corning, N.Y.). 50 μL of ThT are then added to each well. The amyloid fibrils are then added to each well in a volume of 100 μL rapidly to mix the well contents. The plates are read within 5 to 30 minutes in a Millipore Cytofluor 2350 96-well fluorescence plate reader using an excitation filter of 440 nm (20 nm bandpass) and an emission filter of 485 nm (20 nm bandpass). ThT dye blanks were used to correct for the minimal fluorescence background which are subtracted from all data.
(§2) Results are expressed as % maximal fluorescence (no competing compound). […]

Test [2] deals with Insulin amyloid aggregates. The test is described as follows: Competition assay with Thioflavin T (ThT) for binding to insulin amyloid aggregates, fluorescence 96-well plate. The settings on record: 0.5 μM ThT, 2 μg per well fibrils, 25 mM sodium phosphate pH 6.0, room temperature. On the procedure: Burke M. J. and Rougevie M. A., Cross-β Protein Structures. I. Insulin Fibrils. […] Briefly, lyophilized insulin protein powder dissolved at 10 mg/mL in 50 mM HCl was alternately heated to 95° C. and frozen in dry ice to form amyloid aggregates.
as §1
Using a multichannel pipettor, 100 μL of dilutions of the compound to be tested (0.001-30 μM final concentration in 3-fold steps) are placed in the bottom of Corning U-well polystyrene plates (Corning Company, Corning, N.Y.). 50 μL of ThT are then added to each well. The amyloid fibrils are then added to each well in a volume of 100 μL rapidly to mix the well contents. […] ThT dye blanks were used to correct for the minimal fluorescence background which are subtracted from all data.
as §2

[3] abbreviates: 20 μM ThT, 5 μg/well fibrils, 25 mM sodium phosphate pH 6.0, room temperature, read-out: βA(1-40), IC50.

T1 sequence (P05067 672-711 limits assumed): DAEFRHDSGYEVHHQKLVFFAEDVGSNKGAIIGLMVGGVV

In general, IC50 refers to the point on the concentration scale where inhibition reaches its midpoint. On to `CN(C)c1ccc(/C=C/c2sc3ccccc3[n+]2Cc2ccc(-c3ccccc3)cc2)cc1` [Example 26, (E)-3-Biphenyl-4-ylmethyl-2-[2-(4-dimethylaminophenyl)vinyl]benzothiazol-3-ium iodide], for which the IC50 came to 0.24 µM in test [1] (setting [3]) and 0.034 µM in test [2].
In the case of `CN(C)c1ccc(/C=C/c2sc3ccccc3[n+]2Cc2ccc3ccccc3c2)cc1` [Example 27, (E)-2-[2-(4-Dimethylaminophenyl)vinyl]-3-naphthalen-2-ylmethylbenzothiazol-3-ium bromide], the IC50 in test [1] was determined as 0.12 µM; in test [2], 0.013 µM.
On the same counts, the results for `CN(C)c1ccc(/C=C/c2sc3ccccc3[n+]2Cc2cccc(C(=O)c3ccccc3)c2)cc1` [Example 29, (E)-3-(3-Benzoylbenzyl)-2-[2-(4-dimethylaminophenyl)vinyl]benzothiazol-3-ium bromide] are 0.23 µM and 0.13 µM.
On the same counts, the results for `CN(C)c1ccc(/C=C/c2sc3ccccc3[n+]2Cc2cccc(Oc3ccccc3)c2)cc1` [Example 30, (E)-2-[2-(4-Dimethylaminophenyl)vinyl]-3-(3-phenoxybenzyl)benzothiazol-3-ium bromide] are 0.12 µM and 0.18 µM.
For the compound `CN(C)c1ccc(/C=C/c2sc3ccccc3[n+]2CCCc2ccccc2)cc1` [Example 31, (E)-2-[2-(4-Dimethylaminophenyl)vinyl]-3-(3-phenylpropyl)benzothiazol-3-ium iodide], the IC50 was 0.2 µM in test [1] (setting [3]) and 0.21 µM in test [2].
For `CN(C)c1ccc(/C=C/c2sc3ccccc3[n+]2CCCC(c2ccccc2)c2ccccc2)cc1` [Example 33, (E)-2-[2-(4-Dimethylaminophenyl)vinyl]-3-(4,4-diphenylbutyl)benzothiazol-3-ium iodide], the IC50 turned out to be 0.46 µM in test [1] (setting [3]) and 0.21 µM in test [2].
`CN(C)c1ccc(/C=C/c2sc3ccccc3[n+]2CCCOCc2ccccc2)cc1` [Example 34, (E)-3-(3-Benzyloxypropyl)-2-[2-(4-dimethylaminophenyl)vinyl]benzothiazol-3-ium iodide]: the IC50 in test [1] (setting [3]) was 0.14 µM; in test [2], 0.052 µM.
The matching figures for `CN(C)c1ccc(/C=C/c2sc3ccccc3[n+]2CCCCCOc2ccccc2)cc1` [Example 37, (E)-2-[2-(4-Dimethylaminophenyl)vinyl]-3-(5-phenoxypentyl)benzothiazol-3-ium iodide]: 0.17 µM and 0.08 µM.
Take `CN(C)c1ccc(/C=C/c2sc3ccccc3[n+]2CCC2CCCCC2)cc1` [Example 38, (E)-3-(2-Cyclohexylethyl)-2-[2-(4-dimethylaminophenyl)vinyl]benzothiazol-3-ium iodide]: the figures for the IC50 in test [1] (setting [3]) and in test [2] were 0.12 µM and 0.052 µM, respectively.
In the case of `CCCCCCC[n+]1c(/C=C/c2ccc(N(C)C)c3ccccc23)sc2ccccc21` [Example 39, (E)-2-[2-(4-Dimethylaminonaphthalen-1-yl)vinyl]-3-heptylbenzothiazol-3-ium iodide], the IC50 stood at 0.16 µM in test [1] (setting [3]) and 0.04 µM in test [2].
The matching figures for `COc1ccc2c(c1)sc(/C=C/c1ccc(N(C)C)c3ccccc13)[n+]2C` [Example 41, (E)-2-[2-(4-Dimethylaminonaphthalen-1-yl)vinyl]-6-methoxy-3-methylbenzothiazol-3-ium iodide]: 0.43 µM and 0.026 µM.
Consider `CN(C)c1ccc(/C=C/c2sc3ccc4ccccc4c3[n+]2C)c2ccccc12` [Example 42, (E)-2-[2-(4-Dimethylaminonaphthalen-1-yl)vinyl]-1-methylnaphtho[1,2-d]thiazol-1-ium toluene-4-sulfonate], for which the IC50 is 0.25 µM in test [1] (setting [3]) and 0.042 µM in test [2].
On the same counts, the results for `CCCCCCC[n+]1c(/C=C/c2ccc(N(CC)CC)cc2)sc2ccccc21` [Example 44, (E)-2-[2-(4-Diethylaminophenyl)vinyl]-3-heptylbenzothiazol-3-ium iodide] are 0.14 µM and 0.12 µM.
As for `CCCCCCC[n+]1c(/C=C/c2ccc(N(CCCC)CCCC)cc2)sc2ccccc21` [Example 45, (E)-2-[2-(4-Dibutylaminophenyl)vinyl]-3-heptylbenzothiazol-3-ium iodide], the IC50 in test [1] (setting [3]) was determined as 0.6 µM; in test [2], 0.09 µM.
On the same counts, the results for `CCCCCCC[n+]1c(/C=C/c2ccc(N3CCCC3)cc2)sc2ccccc21` [Example 46, (E)-3-Heptyl-2-[2-[(4-pyrrolidin-1-yl)phenyl]vinyl]benzothiazol-3-ium iodide] are 0.16 µM and 0.042 µM.
For the compound `Nc1ccc(/N=N/c2nc3ccccc3s2)c2ccccc12` [Example 48, 4-(Benzothiazol-2-ylazo)naphthalen-1-ylamine], the IC50 in test [1] (setting [3]) came to 0.12 µM; in test [2] it was 0.11 µM.
Turning to `COc1ccc2nc(/N=N/c3ccc(N(C)C)cc3)sc2c1` [Example 49, 2-[[4-(Dimethylamino)phenyl]azo]-6-methoxybenzothiazole], the values for the IC50 in test [1] (setting [3]) and in test [2] were 3.2 µM and 0.7 µM, respectively.
On the same counts, the results for `CN(C)c1ccc(/N=N/c2nc3ccc(Cl)cc3s2)cc1` [Example 50, 6-Chloro-2-[[4-(dimethylamino)phenyl]azo]benzothiazole] are 1.3 µM and 1.3 µM.
On the same counts, the results for `COc1ccc2nc(/N=N/c3ccc(N(C)C)c4ccccc34)sc2c1` [Example 51, [4-(6-Methoxybenzothiazol-2-ylazo)naphthalen-1-yl]dimethylamine] are 2.5 µM and 0.34 µM.
For `COc1ccc2c(c1)sc(N=Nc1ccc(N(C)C)cc1)[n+]2C` [Example 53, 2-[[4-(Dimethylamino)phenyl]azo]-6-methoxy-3-methylbenzothiazol-3-ium methylsulfate], the IC50 in test [1] (setting [3]) was determined as 0.41 µM; in test [2] it was 0.01 µM.
On to `CN(C)c1ccc(N=Nc2sc3ccccc3[n+]2C)cc1` [Example 54, 2-[[4-(Dimethylamino)phenyl]azo]-3-methylbenzothiazolium methylsulfate], for which the IC50 in test [1] (setting [3]) was found to be 1.3 µM; in test [2], 0.06 µM.
